In PubChem BioAssay AID330 (DTP/NCI, 2004):
Values joined by “and” are separate entries in the source; they are usually repeats but may differ in a detail not shown here. Equal values may be shown once. Toxic doses and inconclusive results are not listed. How the source made its calls: active means survival T/C of 150% or more; inactive means T/C below 125% in these data.

Tested on: P388 leukemia ip, CD2F1 mice, survival T/C
Experiment: NCI In Vivo Anticancer Drug Screen. Data for tumor model P388 Leukemia (intraperitoneal) in CD2F1 (CDF1) mice
Settings: endpoint: median survival time, higher = longer survival
Outline: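 Mice carrying the transplanted tumor received test compound or vehicle. Survival was recorded in each group, and the value is the treated-group measurement divided by that of the vehicle-treated control group.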

[1] = dose: 50.0 mg/kg/injection, schedule: Q01DX009 (ip), vehicle: saline with Tween-80
[2] = dose: 100.0 mg/kg/injection, schedule: Q01DX009 (ip), vehicle: saline with Tween-80
[3] = dose: 200.0 mg/kg/injection, schedule: Q01DX009 (ip), vehicle: saline with Tween-80
[4] = dose: 25.0 mg/kg/injection, schedule: Q01DX009 (ip), vehicle: Klucel (hydroxypropylcellulose) (HPC)
[5] = dose: 50.0 mg/kg/injection, schedule: Q01DX009 (ip), vehicle: Klucel (hydroxypropylcellulose) (HPC)
[6] = dose: 100.0 mg/kg/injection, schedule: Q01DX009 (ip), vehicle: Klucel (hydroxypropylcellulose) (HPC)
[7] = dose: 200.0 mg/kg/injection, schedule: Q01DX009 (ip), vehicle: Klucel (hydroxypropylcellulose) (HPC)
[8] = dose: 50.0 mg/kg/injection, schedule: Q01DX005 (ip), vehicle: saline with Tween-80
[9] = dose: 100.0 mg/kg/injection, schedule: Q04DX003 (ip), vehicle: saline with Tween-80
[10] = dose: 100.0 mg/kg/injection, schedule: Q01DX005 (ip), vehicle: saline with Tween-80
[11] = dose: 200.0 mg/kg/injection, schedule: Q01DX005 (ip), vehicle: saline with Tween-80
[12] = dose: 100.0 mg/kg/injection, schedule: Q04DX003 (ip), vehicle: saline
[13] = dose: 200.0 mg/kg/injection, schedule: Q04DX003 (ip), vehicle: saline
[14] = dose: 400.0 mg/kg/injection, schedule: Q04DX003 (ip), vehicle: saline
[15] = dose: 25.0 mg/kg/injection, schedule: Q01DX009 (ip), vehicle: saline with Tween-80

Measured: T/C

CCC(C)C(NC(=O)C(Cc1c[nH]c2ccccc12)NC(=O)OC(C)(C)C)C(=O)OC (stereo not drawn)
inactive: dose: 12.5 mg/kg/injection, schedule: Q01DX009 (ip), vehicle: other 99 % of control | dose: 25.0 mg/kg/injection, schedule: Q01DX009 (ip), vehicle: other 104 % of control | dose: 50.0 mg/kg/injection, schedule: Q01DX009 (ip), vehicle: other 104 % of control | dose: 100.0 mg/kg/injection, schedule: Q01DX009 (ip), vehicle: other 106 % of control | dose: 200.0 mg/kg/injection, schedule: Q01DX009 (ip), vehicle: other 110 % of control

COc1cc2c(cc1O)C(C)Cc1cc3c(cc1N(C)CC2)OCO3 (stereo not drawn)
inactive: dose: 100.0 mg/kg/injection, schedule: Q04DX002 (ip), vehicle: saline 106 % of control | dose: 200.0 mg/kg/injection, schedule: Q04DX002 (ip), vehicle: saline 113 % of control | dose: 400.0 mg/kg/injection, schedule: Q04DX002 (ip), vehicle: saline 103 % of control

CCCCCCCCCCCCCCCCCS(=O)S(=O)O (stereo not drawn)
inactive: [1] 113 % of control | [2] 118 % of control | dose: 100.0 mg/kg/injection, schedule: Q04DX003 (ip), vehicle: Klucel (hydroxypropylcellulose) (HPC) 100 % of control | [3] 122 % of control | dose: 200.0 mg/kg/injection, schedule: Q04DX003 (ip), vehicle: Klucel (hydroxypropylcellulose) (HPC) 109 % of control | dose: 400.0 mg/kg/injection, schedule: Q04DX003 (ip), vehicle: Klucel (hydroxypropylcellulose) (HPC) 113 % of control

Nc1nc2ncc(CN(C(=O)CCCl)c3ccc(C(=O)NC(CCC(=O)O)C(=O)O)cc3)nc2c(=O)[nH]1 (stereo not drawn)
inactive: dose: 50.0 mg/kg/injection, schedule: Q01DX009 (ip), vehicle: alkali diluted with saline 100 % of control | dose: 100.0 mg/kg/injection, schedule: Q01DX009 (ip), vehicle: alkali diluted with saline 108 % of control | dose: 200.0 mg/kg/injection, schedule: Q01DX009 (ip), vehicle: alkali diluted with saline 101 % of control

Cc1cc(SSc2cc(C)nc(N)n2)nc(N)n1
inactive: dose: 100.0 mg/kg/injection, schedule: Q01DX001 (ip), vehicle: saline with Tween-80 86 % of control | dose: 200.0 mg/kg/injection, schedule: Q01DX001 (ip), vehicle: saline with Tween-80 86 % of control

Cc1ccc(S(=O)(=O)NN=C(c2ccccc2)c2ccccc2)cc1
inactive: dose: 12.5 mg/kg/injection, schedule: Q01DX009 (ip), vehicle: Klucel (hydroxypropylcellulose) (HPC) 98 % of control | [4] 93 % of control | [5] 87 % of control | [6] 88 % of control | [7] 86 % of control

COc1cc(NCCCCCNC(C)C(C)C)c2ncccc2c1 (stereo not drawn)
inactive: dose: 12.5 mg/kg/injection, schedule: Q01DX005 (ip), vehicle: saline with Tween-80 93 % of control | dose: 25.0 mg/kg/injection, schedule: Q01DX005 (ip), vehicle: saline with Tween-80 95 % of control | [8] 100 % of control and 96 % of control

COc1cccc(/C=N\NC(=O)C(C)SC(C)C(=O)N/N=C/c2cccc(OC)c2)c1 (stereo not drawn)
inactive: [9] 104 % of control | dose: 200.0 mg/kg/injection, schedule: Q04DX003 (ip), vehicle: saline with Tween-80 90 % of control | dose: 400.0 mg/kg/injection, schedule: Q04DX003 (ip), vehicle: saline with Tween-80 100 % of control

O=C(Nc1ccccc1)N1c2ccccc2SC1c1ccco1 (stereo not drawn)
inactive: [8] 101 % of control | [10] 100 % of control | [11] 92 % of control

CCCC(N(C)C)P(=O)(O)O (stereo not drawn)
inactive: [12] 105 % of control | [13] 105 % of control | [14] 100 % of control

O=C(Nc1cccc(Cl)c1)OCCN1CCNC1=S
inactive: [5] 116 % of control | [6] 106 % of control | [7] 105 % of control

CC1CCOC(C)O1 (stereo not drawn)
inactive: [12] 100 % of control | [13] 104 % of control | [14] 101 % of control

CC1=C(Br)C(c2ccccc2)=Nc2ccccc2N1
inactive: dose: 12.5 mg/kg/injection, schedule: Q01DX009 (ip), vehicle: saline with Tween-80 123 % of control | [15] 116 % of control | dose: 50.0 mg/kg/injection, schedule: Q01DX009 (ip), vehicle: saline 119 % of control | dose: 100.0 mg/kg/injection, schedule: Q01DX009 (ip), vehicle: saline 110 % of control

NC(=O)NC(c1ccc(O)cc1)c1cc2c(cc1O)OCO2 (stereo not drawn)
inactive: dose: 60.0 mg/kg/injection, schedule: Q01DX005 (ip), vehicle: Klucel + Tween-80 86 % of control | dose: 120.0 mg/kg/injection, schedule: Q01DX005 (ip), vehicle: Klucel + Tween-80 86 % of control | dose: 240.0 mg/kg/injection, schedule: Q01DX005 (ip), vehicle: Klucel + Tween-80 86 % of control

C=C1C2(O)CCC(C2)C1(C)C (stereo not drawn)
inactive: dose: 60.0 mg/kg/injection, schedule: Q01DX005 (ip), vehicle: Klucel (hydroxypropylcellulose) (HPC) 108 % of control | dose: 120.0 mg/kg/injection, schedule: Q01DX005 (ip), vehicle: Klucel (hydroxypropylcellulose) (HPC) 106 % of control | dose: 240.0 mg/kg/injection, schedule: Q01DX005 (ip), vehicle: Klucel (hydroxypropylcellulose) (HPC) 100 % of control

COC1(OC)C(=S)N(C2CCCCC2)C(=S)N1C1CCCCC1
inactive: dose: 50.0 mg/kg/injection, schedule: Q01DX005 (ip), vehicle: Klucel (hydroxypropylcellulose) (HPC) 95 % of control | dose: 100.0 mg/kg/injection, schedule: Q01DX005 (ip), vehicle: Klucel (hydroxypropylcellulose) (HPC) 95 % of control | dose: 200.0 mg/kg/injection, schedule: Q01DX005 (ip), vehicle: Klucel (hydroxypropylcellulose) (HPC) 96 % of control

Nc1nnnn1CCCCO
inactive: dose: 50.0 mg/kg/injection, schedule: Q01DX005 (ip), vehicle: saline 104 % of control | dose: 100.0 mg/kg/injection, schedule: Q01DX005 (ip), vehicle: saline 103 % of control | dose: 200.0 mg/kg/injection, schedule: Q01DX005 (ip), vehicle: saline 111 % of control | dose: 400.0 mg/kg/injection, schedule: Q01DX005 (ip), vehicle: saline 120 % of control

Cc1ccc(NC(=O)Oc2ccccc2F)c([N+](=O)[O-])c1
inactive: [1] 115 % of control | [2] 115 % of control | [3] 115 % of control

Cc1ccc(C)c(N=Nc2ccc(O)cc2)c1
inactive: [15] 100 % of control | [1] 109 % of control | dose: 50.0 mg/kg/injection, schedule: Q04DX003 (ip), vehicle: saline with Tween-80 104 % of control | [2] 100 % of control | [9] 100 % of control

Cn1c(NCCN2CCOCC2)c(C(=O)/C=C/c2ccccc2)c(=O)n(C)c1=O
inactive: [8] 98 % of control | [10] 92 % of control | [11] 95 % of control

COc1cc2c(c3oc4c(O)cccc4c(=O)c13)CC(C(C)(O)CO)O2 (stereo not drawn)
inactive: dose: 3.5 mg/kg/injection, schedule: Q01DX005 (ip), vehicle: Klucel (hydroxypropylcellulose) (HPC) 105 % of control | dose: 7.0 mg/kg/injection, schedule: Q01DX005 (ip), vehicle: Klucel (hydroxypropylcellulose) (HPC) 96 % of control | dose: 14.0 mg/kg/injection, schedule: Q01DX005 (ip), vehicle: Klucel (hydroxypropylcellulose) (HPC) 96 % of control | dose: 28.0 mg/kg/injection, schedule: Q01DX005 (ip), vehicle: Klucel (hydroxypropylcellulose) (HPC) 92 % of control

COC1/C=C\OC2(C)Oc3c(C)c(O)c4c(O)c(c5c(c4c3C2=O)OC[N+](C)=C5)NC(=O)/C(C)=C\C=C\C(C)C(O)C(C)C(O)C(C)C(OC(C)=O)C1C (stereo not drawn)
inactive: [4] 92 % of control | [5] 97 % of control | [6] 95 % of control | [7] 95 % of control
